Key:
[1] = system: ECHCG (Echinochloa crus-galli); assay: Preemergence herbicidal evaluation; format: in vivo, (L.) Beau; settings: rated 4-5 weeks after treatment
Procedure, shortened: (§1)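 Seeds mixed with potting soil were planted atop about one inch of soil, then sprayed with test compound in aqueous acetone. Cups were kept in the greenhouse and rated visually 4–5 weeks after treatment on a 0–9 scale against untreated control.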

[2] = system: SETVI (Setaria viridis); assay: Preemergence herbicidal evaluation; format: in vivo, (L.) Beau; settings: rated 4-5 weeks after treatment
Procedure, shortened: as §1

[3] = system: GLXMAW (Soybean, Williams); assay: Preemergence herbicidal evaluation; format: in vivo, Glycine max, (L.) Merr. cv Williams; settings: rated 4-5 weeks after treatment
[4] = system: MOOVA (Monochoria vaginalis); assay: Flooded paddy, preemergence weed control; format: in vivo, Presl.; settings: rated 3-4 weeks after treatment, 0-9 rating scale
Procedure, shortened: (§2)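 Visual 0–9 ratings versus controls scored stand, vigor, malformation, size, chlorosis and overall appearance. Plants grew from seeds or propagating organs sown 0.5 cm deep in silt loam, with water held 1.5–3 cm above the soil for the whole test under greenhouse care.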

[5] = system: IPOHE (Ipomoea hederacea); assay: Postemergence herbicidal evaluation; format: in vivo, (L.) Jacq.; settings: for IPOHE herbicidal rating: postemergence
Procedure, shortened: (§3)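 Seedlings grown for about two weeks were sprayed postemergence and then kept under standard greenhouse care. Injury was rated visually 4–5 weeks after treatment on a 0–9 scale against untreated controls, and ratings from repeat tests were averaged.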

[6] = system: TRZAWR (Wheat, Winter, cv Riband); assay: Preemergence herbicidal evaluation; format: in vivo, Triticum aestivum; settings: rated 4-5 weeks after treatment
Procedure, shortened: as §1

[7] = system: ABUTH (Abutilon theophrasti); assay: Postemergence herbicidal evaluation; format: in vivo, Medic.; settings: for ABUTH herbicidal rating: postemergence
Procedure, shortened: as §3

[8] = system: GLXMAW (Soybean, Williams); assay: Postemergence herbicidal evaluation; format: in vivo, Glycine max, (L.) Merr. cv Williams; settings: for GLXMAW herbicidal rating: postemergence
Procedure, shortened: as §3

[9] = system: AMBEL (Ambrosia artemisifolia); assay: Preemergence herbicidal evaluation; format: in vivo, L.; settings: rated 4-5 weeks after treatment
Procedure, shortened: as §1

[10] = system: CASOB (Cassia obtusifolia); assay: Preemergence herbicidal evaluation; format: in vivo, L.; settings: rated 4-5 weeks after treatment
Procedure, shortened: as §1

[11] = system: CHEAL (Chenopodium album); assay: Preemergence herbicidal evaluation; format: in vivo, L.; settings: rated 4-5 weeks after treatment
Procedure, shortened: as §1

[12] = system: ORYSAT (Rice, Tebonnet); assay: Postemergence herbicidal evaluation; format: in vivo, Oryza sativa, (L.) Tebonnet; settings: for ORYSAT herbicidal rating: postemergence
Procedure, shortened: as §3

[13] = system: AMBEL (Ambrosia artemisifolia); assay: Postemergence herbicidal evaluation; format: in vivo, L.; settings: for AMBEL herbicidal rating: postemergence
Procedure, shortened: as §3

[14] = system: CASOB (Cassia obtusifolia); assay: Postemergence herbicidal evaluation; format: in vivo, L.; settings: for CASOB herbicidal rating: postemergence
Procedure, shortened: as §3

[15] = system: CHEAL (Chenopodium album); assay: Postemergence herbicidal evaluation; format: in vivo, L.; settings: for CHEAL herbicidal rating: postemergence
Procedure, shortened: as §3

[16] = system: IPOHE (Ipomoea hederacea); assay: Preemergence herbicidal evaluation; format: in vivo, (L.) Jacq.; settings: rated 4-5 weeks after treatment
[17] = system: CYPIR (Cyperus iria); assay: Flooded paddy, preemergence weed control; format: in vivo; settings: rated 3-4 weeks after treatment, 0-9 rating scale
Procedure, shortened: as §2

[18] = system: ZEAMX (Corn, Field); assay: Preemergence herbicidal evaluation; format: in vivo, Zea mays, L.; settings: rated 4-5 weeks after treatment
[19] = system: ORYSAT (Rice, Tebonnet); assay: Flooded paddy, post-transplant rice tolerance; format: in vivo, Oryza sativa, (L.) Tebonnet; settings: flooded paddy, post-transplant rice, rated 3-4 weeks after treatment, 0-9 rating scale
Procedure, shortened: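 Scores (0-9) reflect visual injury relative to untreated plants in flooded silt loam. Each pot held two transplanted ten-day-old seedlings under 1.5 to 3 cm standing water in the greenhouse.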

[20] = system: ABUTH (Abutilon theophrasti); assay: Preemergence herbicidal evaluation; format: in vivo, Medic.; settings: rated 4-5 weeks after treatment

Structure (SMILES): Cn1c(C(F)(F)F)cc(=O)n(-c2ccc3snc(C4OCC(c5ccccc5)O4)c3c2)c1=O (centres unmarked) [Compound 78, 1-methyl-3-[3-(4-phenyl-1,3-dioxolan-2-yl)-1,2-benzisothiazol-5-yl]-6-(trifluoromethyl)uracil]
- Preemergence herbicidal rating ECHCG ([1]; Rate 0.0620 kg/ha): 8.5
- Preemergence herbicidal rating ECHCG ([1]; Rate 0.1250 kg/ha): 9.0
- Preemergence herbicidal rating ECHCG ([1]; Rate 0.2500 kg/ha): 8.0
- Preemergence herbicidal rating SETVI ([2]; Rate 0.0620 kg/ha): 9.0
- Preemergence herbicidal rating SETVI ([2]; Rate 0.1250 kg/ha): 9.0
- Preemergence herbicidal rating SETVI ([2]; Rate 0.2500 kg/ha): 9.0
- Preemergence herbicidal rating GLXMAW ([3]; Rate 0.0620 kg/ha): 2.5
- Preemergence herbicidal rating GLXMAW ([3]; Rate 0.1250 kg/ha): 6.0
- Preemergence herbicidal rating GLXMAW ([3]; Rate 0.2500 kg/ha): 5.0
- herbicidal rating, MOOVA ([4]; rate 0.0080 kg/ha): 7.7
- herbicidal rating, MOOVA ([4]; rate 0.0320 kg/ha): 9.0
- herbicidal rating, MOOVA ([4]; rate 0.1250 kg/ha): 9.0
- IPOHE herbicidal rating ([5]; rate 0.0320 kg/ha): 9.0
- IPOHE herbicidal rating ([5]; rate 0.0620 kg/ha): 9.0
- Preemergence herbicidal rating TRZAWR ([6]; Rate 0.0620 kg/ha): 5.0
- Preemergence herbicidal rating TRZAWR ([6]; Rate 0.1250 kg/ha): 5.0
- Preemergence herbicidal rating TRZAWR ([6]; Rate 0.2500 kg/ha): 6.0
- ABUTH herbicidal rating ([7]; rate 0.0320 kg/ha): 9.0
- ABUTH herbicidal rating ([7]; rate 0.0620 kg/ha): 9.0
- GLXMAW herbicidal rating ([8]; rate 0.0320 kg/ha): 5.0
- GLXMAW herbicidal rating ([8]; rate 0.0620 kg/ha): 5.5
- Preemergence herbicidal rating AMBEL ([9]; Rate 0.0620 kg/ha): 9.0
- Preemergence herbicidal rating AMBEL ([9]; Rate 0.1250 kg/ha): 9.0
- Preemergence herbicidal rating AMBEL ([9]; Rate 0.2500 kg/ha): 9.0
- Preemergence herbicidal rating CASOB ([10]; Rate 0.0620 kg/ha): 2.0
- Preemergence herbicidal rating CASOB ([10]; Rate 0.1250 kg/ha): 4.0
- Preemergence herbicidal rating CASOB ([10]; Rate 0.2500 kg/ha): 6.0
- Preemergence herbicidal rating CHEAL ([11]; Rate 0.0620 kg/ha): 9.0
- Preemergence herbicidal rating CHEAL ([11]; Rate 0.1250 kg/ha): 9.0
- Preemergence herbicidal rating CHEAL ([11]; Rate 0.2500 kg/ha): 9.0
- ORYSAT herbicidal rating ([12]; rate 0.0320 kg/ha): 4.0
- ORYSAT herbicidal rating ([12]; rate 0.0620 kg/ha): 4.0
- AMBEL herbicidal rating ([13]; rate 0.0320 kg/ha): 9.0
- AMBEL herbicidal rating ([13]; rate 0.0620 kg/ha): 9.0
- CASOB herbicidal rating ([14]; rate 0.0320 kg/ha): 9.0
- CASOB herbicidal rating ([14]; rate 0.0620 kg/ha): 6.0
- CHEAL herbicidal rating ([15]; rate 0.0320 kg/ha): 9.0
- CHEAL herbicidal rating ([15]; rate 0.0620 kg/ha): 9.0
- Preemergence herbicidal rating IPOHE ([16]; Rate 0.0620 kg/ha): 2.0
- Preemergence herbicidal rating IPOHE ([16]; Rate 0.1250 kg/ha): 5.0
- Preemergence herbicidal rating IPOHE ([16]; Rate 0.2500 kg/ha): 6.0
- herbicidal rating, CYPIR ([17]; rate 0.0080 kg/ha): 0.0
- herbicidal rating, CYPIR ([17]; rate 0.0320 kg/ha): 9.0
- herbicidal rating, CYPIR ([17]; rate 0.1250 kg/ha): 9.0
- Preemergence herbicidal rating ZEAMX ([18]; Rate 0.0620 kg/ha): 3.0
- Preemergence herbicidal rating ZEAMX ([18]; Rate 0.1250 kg/ha): 3.5
- Preemergence herbicidal rating ZEAMX ([18]; Rate 0.2500 kg/ha): 6.0
- herbicidal rating, ORYSAT (rice tolerance) ([19]; rate 0.0080 kg/ha): 4.0
- herbicidal rating, ORYSAT (rice tolerance) ([19]; rate 0.0320 kg/ha): 5.7
- herbicidal rating, ORYSAT (rice tolerance) ([19]; rate 0.1250 kg/ha): 8.5
- Preemergence herbicidal rating ABUTH ([20]; Rate 0.0620 kg/ha): 9.0
- Preemergence herbicidal rating ABUTH ([20]; Rate 0.1250 kg/ha): 9.0
- Preemergence herbicidal rating ABUTH ([20]; Rate 0.2500 kg/ha): 9.0

Structure (SMILES): Cc1ccc(-c2nsc3ccc(-n4c(=O)cc(C(F)(F)F)n(C)c4=O)cc23)nc1 [Compound 42, 1-methyl-3-[3-(5-methyl-2-pyridyl)-1,2-benzisothiazol-5-yl]-6-(trifluoromethyl)uracil]
- Preemergence herbicidal rating ECHCG ([1]; Rate 0.0620 kg/ha): 1.0
- Preemergence herbicidal rating ECHCG ([1]; Rate 0.1250 kg/ha): 5.5
- Preemergence herbicidal rating ECHCG ([1]; Rate 0.2500 kg/ha): 8.5
- Preemergence herbicidal rating SETVI ([2]; Rate 0.0620 kg/ha): 5.0
- Preemergence herbicidal rating SETVI ([2]; Rate 0.1250 kg/ha): 7.5
- Preemergence herbicidal rating SETVI ([2]; Rate 0.2500 kg/ha): 9.0
- Preemergence herbicidal rating GLXMAW ([3]; Rate 0.0620 kg/ha): 0.0
- Preemergence herbicidal rating GLXMAW ([3]; Rate 0.1250 kg/ha): 1.0
- Preemergence herbicidal rating GLXMAW ([3]; Rate 0.2500 kg/ha): 2.5
- herbicidal rating, MOOVA ([4]; rate 0.0320 kg/ha): 8.0
- herbicidal rating, MOOVA ([4]; rate 0.1250 kg/ha): 9.0
- Postemergence herbicidal rating, IPOHE ([5]; rate 0.0320 kg/ha): 9.0
- Postemergence herbicidal rating, IPOHE ([5]; rate 0.0620 kg/ha): 9.0
- Postemergence herbicidal rating, IPOHE ([5]; rate 0.1250 kg/ha): 9.0
- Preemergence herbicidal rating TRZAWR ([6]; Rate 0.0620 kg/ha): 0.0
- Preemergence herbicidal rating TRZAWR ([6]; Rate 0.1250 kg/ha): 2.0
- Preemergence herbicidal rating TRZAWR ([6]; Rate 0.2500 kg/ha): 5.0
- Postemergence herbicidal rating, ABUTH ([7]; rate 0.0320 kg/ha): 9.0
- Postemergence herbicidal rating, ABUTH ([7]; rate 0.0620 kg/ha): 9.0
- Postemergence herbicidal rating, ABUTH ([7]; rate 0.1250 kg/ha): 9.0
- Postemergence herbicidal rating, GLXMAW ([8]; rate 0.0320 kg/ha): 6.0
- Postemergence herbicidal rating, GLXMAW ([8]; rate 0.0620 kg/ha): 8.0
- Postemergence herbicidal rating, GLXMAW ([8]; rate 0.1250 kg/ha): 8.0
- Preemergence herbicidal rating AMBEL ([9]; Rate 0.0620 kg/ha): 1.0
- Preemergence herbicidal rating AMBEL ([9]; Rate 0.1250 kg/ha): 4.5
- Preemergence herbicidal rating AMBEL ([9]; Rate 0.2500 kg/ha): 9.0
- Preemergence herbicidal rating CASOB ([10]; Rate 0.0620 kg/ha): 0.5
- Preemergence herbicidal rating CASOB ([10]; Rate 0.1250 kg/ha): 0.5
- Preemergence herbicidal rating CASOB ([10]; Rate 0.2500 kg/ha): 0.0
- Preemergence herbicidal rating CHEAL ([11]; Rate 0.0620 kg/ha): 9.0
- Preemergence herbicidal rating CHEAL ([11]; Rate 0.1250 kg/ha): 9.0
- Preemergence herbicidal rating CHEAL ([11]; Rate 0.2500 kg/ha): 9.0
- Postemergence herbicidal rating, ORYSAT ([12]; rate 0.0320 kg/ha): 1.0
- Postemergence herbicidal rating, ORYSAT ([12]; rate 0.0620 kg/ha): 1.5
- Postemergence herbicidal rating, ORYSAT ([12]; rate 0.1250 kg/ha): 1.5
- Postemergence herbicidal rating, AMBEL ([13]; rate 0.0320 kg/ha): 9.0
- Postemergence herbicidal rating, AMBEL ([13]; rate 0.0620 kg/ha): 9.0
- Postemergence herbicidal rating, AMBEL ([13]; rate 0.1250 kg/ha): 9.0
- Postemergence herbicidal rating, CASOB ([14]; rate 0.0320 kg/ha): 1.0
- Postemergence herbicidal rating, CASOB ([14]; rate 0.0620 kg/ha): 1.0
- Postemergence herbicidal rating, CASOB ([14]; rate 0.1250 kg/ha): 4.0
- Postemergence herbicidal rating, CHEAL ([15]; rate 0.0320 kg/ha): 9.0
- Postemergence herbicidal rating, CHEAL ([15]; rate 0.0620 kg/ha): 9.0
- Postemergence herbicidal rating, CHEAL ([15]; rate 0.1250 kg/ha): 9.0
- Preemergence herbicidal rating IPOHE ([16]; Rate 0.0620 kg/ha): 1.0
- Preemergence herbicidal rating IPOHE ([16]; Rate 0.1250 kg/ha): 2.0
- Preemergence herbicidal rating IPOHE ([16]; Rate 0.2500 kg/ha): 4.5
- herbicidal rating, CYPIR ([17]; rate 0.0320 kg/ha): 3.0
- herbicidal rating, CYPIR ([17]; rate 0.1250 kg/ha): 6.0
- Preemergence herbicidal rating ZEAMX ([18]; Rate 0.0620 kg/ha): 3.5
- Preemergence herbicidal rating ZEAMX ([18]; Rate 0.1250 kg/ha): 6.0
- Preemergence herbicidal rating ZEAMX ([18]; Rate 0.2500 kg/ha): 6.5
- herbicidal rating, ORYSAT (rice tolerance) ([19]; rate 0.0320 kg/ha): 3.0
- herbicidal rating, ORYSAT (rice tolerance) ([19]; rate 0.1250 kg/ha): 4.0
- Preemergence herbicidal rating ABUTH ([20]; Rate 0.0620 kg/ha): 2.0
- Preemergence herbicidal rating ABUTH ([20]; Rate 0.1250 kg/ha): 6.5
- Preemergence herbicidal rating ABUTH ([20]; Rate 0.2500 kg/ha): 9.0

— patent US6706663B2, “Herbicidal 3-heterocyclic substituted benzisothiazole and benzisoxazole compounds” (Wyeth, priority 2000, dated 2004)
